Reference: patent US10052333B2, “Methods and systems for the delivery of a therapeutic agent” (HANANJA EHF, priority 2007, dated 2018)

Assays:
[1] = Viscosity of formulation components; type: physicochemical; conditions: neat component as listed in formulation tables
[2] = after nasal administration, adults; cited from earlier work
[3] = Intranasal versus intravenous pharmacokinetics in New Zealand White rabbits; conditions: 5 mg/mL in mPEG 350, 50 μL into each nasal cavity
Protocol: In this Example, 10 mg lorazepam is dissolved in 2 mL of mPEG 350 using ultrasound to obtain a solution containing 5 mg/mL of lorazepam. 50 μL of the resulting composition is administered into each nasal cavity of male New Zealand White rabbits held in a supine position during, and then one minute after application. An Eppendorf pipette is used for each application. After administration, blood samples then are harvested from a marginal ear vein at 0, 2, 5, 10, 15, 30 and 60 minutes, and the lorazepam concentration determined by high performance liquid chromatography (HPLC). The pharmacokinetics of lorazepam delivery via intranasal administration can then be compared with the pharmacokinetics of lorazepam delivery by intravenous administration.
In this Example, 10 mg of midazolam is dissolved in 2 mL of mPEG 350 using ultrasound to obtain a solution containing 5 mg/mL midazolam. 50 μL of the resulting composition is then administered into each nasal cavity of male New Zealand White rabbits, held in a supine position during, and then one minute after application. After administration, blood samples then are harvested from a marginal ear vein at 0, 2, 5, 10, 15, 30 and 60 minutes, and the midazolam concentration determined by HPLC. […]

[4] = nasal gel, carbopol in PEG 400, rats; cited from earlier work

Compound	Viscosity (cP) of component [1]	Pharmacokinetics of intranasal versus intravenous administration [3]	further results
CC(O)CO (stereo not drawn) [Propylene glycol]	40 cP	–	–
O [Water]	1 cP	–	–
O=C1Nc2ccc(Cl)cc2C(c2ccccc2Cl)=NC1O (stereo not drawn) [lorazepam]	–	comparable to those of the intravenously administered lorazepam	Time to peak concentration [2]: 2.3 h
Cc1ncc2n1-c1ccc(Cl)cc1C(c1ccccc1F)=NC2 [midazolam]	–	comparable to those of the intravenously administered midazolam	–
COC(=O)C1=C(C)NC(C)=C(C(=O)OC)C1c1ccccc1[N+](=O)[O-] [nifedipine]	–	–	Time to peak plasma concentration [4]: 30 min
